≈ marks a conversion by molar mass, not a printed value. Calls of active or inactive are those of the source. No cut-off for these calls is given here.
Experiments:
Leishmania donovani [1] = assay: Antileishmanial activity against Leishmania donovani MHOM/IN/80/Dd8 promastigotes infected in mouse J774A1 cells at 500 ug/mL after 96 hrs by MTT assay relative to control; type: functional, organism-based; details: J774.A1
Leishmania donovani [2] = assay: Antileishmanial activity against Leishmania donovani MHOM/IN/80/Dd8 amastigotes infected in mouse J774A1 cells at 25 ug/mL after 72 hrs by MTT assay relative to control; type: functional, organism-based; details: J774.A1
Leishmania donovani [3] = assay: Antileishmanial activity against Leishmania donovani MHOM/IN/80/Dd8 amastigotes infected in mouse J774A1 cells at 200 ug/mL after 72 hrs by MTT assay relative to control; type: functional, organism-based; details: J774.A1
Leishmania donovani [4] = assay: Antileishmanial activity against Leishmania donovani MHOM/IN/80/Dd8 promastigotes infected in mouse J774A1 cells at 2000 ug/mL after 96 hrs by MTT assay relative to control; type: functional, organism-based; details: J774.A1
Leishmania donovani [5] = assay: Antileishmanial activity against Leishmania donovani MHOM/IN/80/Dd8 amastigotes infected in mouse J774A1 cells at 50 ug/mL after 72 hrs by MTT assay relative to control; type: functional, organism-based; details: J774.A1
Leishmania donovani [6] = assay: Antileishmanial activity against Leishmania donovani MHOM/IN/80/Dd8 amastigotes infected in mouse J774A1 cells at 100 ug/mL after 72 hrs by MTT assay relative to control; type: functional, organism-based; details: J774.A1
Leishmania donovani [7] = assay: Antileishmanial activity against Leishmania donovani MHOM/IN/80/Dd8 promastigotes infected in mouse J774A1 cells at 1000 ug/mL after 96 hrs by MTT assay relative to control; type: functional, organism-based; details: J774.A1
Leishmania donovani [8] = assay: Antileishmanial activity against Leishmania donovani MHOM/IN/80/Dd8 promastigotes infected in mouse J774A1 cells at 10 ug/mL after 96 hrs by MTT assay relative to control; type: functional; details: for inhibition at 10 µg/mL: MHOM/IN/80/Dd8, J774.A1, 96 h; for Activity: J774.A1
[9] = Cytotoxicity against Sprague-Dawley rat calvarial osteoblast cells at 10 pM to 1 uM after 48 hrs by MTT assay; type: cell-based
Leishmania donovani [10] = assay: Antileishmanial activity against Leishmania donovani MHOM/IN/80/Dd8 promastigotes infected in mouse J774A1 cells at 6.25 ug/mL after 96 hrs by MTT assay relative to control; type: functional; details: MHOM/IN/80/Dd8, J774.A1, 96 h
Leishmania donovani [11] = assay: Antileishmanial activity against Leishmania donovani MHOM/IN/80/Dd8 amastigotes infected in mouse J774A1 cells at 10 ug/mL after 72 hrs by MTT assay relative to control; type: functional; details: for Activity: J774.A1; for inhibition at 10 µg/mL: MHOM/IN/80/Dd8, J774.A1, 72 h
Bone marrow cell [12] = assay: Antibone resorptive activity in mouse bone marrow cells assessed as inhibition of osteoclastogenesis at 100 nM after 7 days by TRAP assay in presence of MCSF and RANKL; type: functional, cell-based
Mus musculus [13] = assay: Induction of osteoclastogenesis in BALB/c ovariectomized mouse bone marrow cells at 10 mg/kg by TRAP assay relative to sham group in presence of MCSF and RANKL; type: functional
Bone marrow cell [14] = assay: Antibone resorptive activity in mouse bone marrow cells assessed as inhibition of osteoclastogenesis at 10 pM after 7 days by TRAP assay in presence of MCSF and RANKL; type: functional, cell-based
Osteoclast [15] = assay: Induction of apoptosis in mouse osteoclast cells assessed as nucleosomal DNA fragmentation at 10 pM after 48 hrs by Hoechst 33258 staining; type: functional, cell-based
Mus musculus [16] = assay: Antibone resorptive activity in BALB/c ovariectomized mouse bone marrow cells assessed as inhibition of osteoclastogenesis at 10 mg/kg by TRAP assay relative to control in presence of MCSF and RANKL; type: functional; set-up: scale not given: the % may be the effect or the level left
Bone marrow cell [17] = assay: Antibone resorptive activity in mouse bone marrow cells assessed as inhibition of osteoclastogenesis at 100 pM after 7 days by TRAP assay in presence of MCSF and RANKL; type: functional, cell-based
[18] = Cytotoxicity against mouse J774A1 cells after 72 hrs by MTT assay; type: cell-based, J774.A1
Leishmania donovani [19] = assay: Antileishmanial activity against Leishmania donovani MHOM/IN/80/Dd8 amastigotes infected in mouse J774A1 cells at 2 ug/mL after 72 hrs by MTT assay relative to control; type: functional; details: MHOM/IN/80/Dd8, J774.A1, 72 h
Osteoclast [20] = assay: Induction of apoptosis in mouse osteoclast cells assessed as nucleosomal DNA fragmentation at 100 nM after 48 hrs by Hoechst 33258 staining; type: functional, cell-based
Leishmania donovani [21] = assay: Antileishmanial activity against Leishmania donovani MHOM/IN/80/Dd8 amastigotes infected in mouse J774A1 cells after 72 hrs by MTT assay; type: functional, organism-based; details: MHOM/IN/80/Dd8, J774.A1, 72 h
Leishmania donovani [22] = assay: Antileishmanial activity against Leishmania donovani MHOM/IN/80/Dd8 amastigotes infected in mouse J774A1 cells at 1 ug/mL after 72 hrs by MTT assay relative to control; type: functional; details: MHOM/IN/80/Dd8, J774.A1, 72 h
Leishmania donovani [23] = assay: Antileishmanial activity against Leishmania donovani MHOM/IN/80/Dd8 amastigotes infected in mouse J774A1 cells at 5 ug/mL after 72 hrs by MTT assay relative to control; type: functional; details: MHOM/IN/80/Dd8, J774.A1, 72 h

Work on Sodium Stibogluconate yielded an inhibition (Leishmania donovani [1]) of 29.1%, an inhibition (Leishmania donovani [2]) of 11.4% and an inhibition (Leishmania donovani [3]) of 99.8%. The inhibition (Leishmania donovani [4]) was 72.8%, the inhibition (Leishmania donovani [5]) was 48.4% and the inhibition (Leishmania donovani [6]) was 78.8%. For the same compound, the inhibition (Leishmania donovani [7]) was 55.5%.

For `CCOP(=O)(OCC)C(O)(CCCCCn1c2c(c3ccccc31)CCCc1ccccc1-2)P(=O)(OCC)OCC`, the inhibition at 10 µg/mL (Leishmania donovani [8]) was 85.7%, the Activity [9] was “Not Active” and the inhibition at 6.25 µg/mL (Leishmania donovani [10]) was 26.1%. For the same compound, the Activity (Leishmania donovani [11]) was “Toxic”.

In the case of `O=P([O-])([O-])C(O)(CCCCn1c2c(c3ccccc31)CCSc1ccccc1-2)P(=O)([O-])[O-].[Na+].[Na+].[Na+].[Na+]`, the Activity (Bone marrow cell [12]) was “Active”, the Activity (Leishmania donovani [8]) was “inactive” and the Activity [9] was “Not Active”. The inhibition at 10 µg/mL (Leishmania donovani [11]) was 55.3%.

For `NCCCC(O)(P(=O)(O)O)P(=O)(O)O`, the Activity (Bone marrow cell [12]) was “Active”.

For `O=P([O-])([O-])C(O)(CCCn1c2c(c3ccccc31)CCSc1ccccc1-2)P(=O)([O-])[O-].[Na+].[Na+].[Na+].[Na+]`, the Activity (Leishmania donovani [8]) was “inactive”, the Activity [9] was “Active” and the inhibition at 10 µg/mL (Leishmania donovani [11]) was 6.3%.

For `CCOP(=O)(OCC)C(O)(CCCCn1c2c(c3ccccc31)CCSc1ccccc1-2)P(=O)(OCC)OCC`, the Activity (Bone marrow cell [12]) was “inactive”, the Activity (Mus musculus [13]) was 40% and the inhibition at 10 µg/mL (Leishmania donovani [8]) was 27.8%. The Activity (Bone marrow cell [14]) was “Active”, the Activity (Osteoclast [15]) was “Active” and the Activity [9] was “Not Active”. The Activity (Mus musculus [16]) was 8.4%, the inhibition at 10 µg/mL (Leishmania donovani [11]) was 9.45% and the Activity (Bone marrow cell [17]) was “Active”.

With `O=P([O-])([O-])C(O)(CCn1c2c(c3ccccc31)CCSc1ccccc1-2)P(=O)([O-])[O-].[Na+].[Na+].[Na+].[Na+]` the inhibition at 10 µg/mL (Leishmania donovani [8]) was 23.5%, the Activity [9] was “Active” and the Activity (Leishmania donovani [11]) was “inactive”.

In the case of `CCOP(=O)(OCC)C(O)(CCCCCn1c2c(c3ccccc31)CCSc1ccccc1-2)P(=O)(OCC)OCC`, the Activity (Bone marrow cell [12]) was “inactive”, the Activity (Mus musculus [13]) was 40% and the inhibition at 10 µg/mL (Leishmania donovani [8]) was 100%. The CC50 at 72 h [18] was 3.66 µg/mL (≈ 5.87 µM), the inhibition at 2 µg/mL (Leishmania donovani [19]) was 16.8% and the Activity (Osteoclast [20]) was “Active”. The Activity [9] was “Not Active”, the inhibition at 6.25 µg/mL (Leishmania donovani [10]) was 99.6% and the Activity (Mus musculus [16]) was 9%. The IC50 (Leishmania donovani [21]) was 1.69 µg/mL (≈ 2.71 µM), the inhibition at 1 µg/mL (Leishmania donovani [22]) was 4.2% and the inhibition at 10 µg/mL (Leishmania donovani [11]) was 78.2%. For the same compound, the inhibition at 5 µg/mL (Leishmania donovani [23]) was 58.8% and the Activity (Bone marrow cell [17]) was “Active”.

For `CCOP(=O)(OCC)C(O)(CCCCCCn1c2c(c3ccccc31)CCSc1ccccc1-2)P(=O)(OCC)OCC`, the Activity (Bone marrow cell [12]) was “Active”, the inhibition at 10 µg/mL (Leishmania donovani [8]) was 100% and the CC50 at 72 h [18] was 4.5 µg/mL (≈ 7.06 µM). For the same compound, the inhibition at 2 µg/mL (Leishmania donovani [19]) was 40%, the Activity [9] was “Not Active” and the inhibition at 6.25 µg/mL (Leishmania donovani [10]) was 90.1%. It also gave an IC50 (Leishmania donovani [21]) of 2.56 µg/mL (≈ 4.01 µM), an inhibition at 1 µg/mL (Leishmania donovani [22]) of 25.5% and an inhibition at 10 µg/mL (Leishmania donovani [11]) of 85%. For the same compound, the inhibition at 5 µg/mL (Leishmania donovani [23]) was 67.2%.

In the case of `O=P([O-])([O-])C(O)(Cn1c2c(c3ccccc31)CCSc1ccccc1-2)P(=O)([O-])[O-].[Na+].[Na+].[Na+].[Na+]`, the Activity (Leishmania donovani [8]) was “inactive”, the Activity [9] was “Active” and the inhibition at 10 µg/mL (Leishmania donovani [11]) was 33.5%.

For `CCOP(=O)(OCC)C(O)(CCCCn1c2c(c3ccccc31)CCOc1ccccc1-2)P(=O)(OCC)OCC`, the inhibition at 10 µg/mL (Leishmania donovani [8]) was 39.4%, the Activity [9] was “Active” and the Activity (Leishmania donovani [11]) was “inactive”.

In the case of `CCOP(=O)(OCC)C(O)(CCCCn1c2c(c3ccccc31)CCCc1ccccc1-2)P(=O)(OCC)OCC`, the Activity (Bone marrow cell [12]) was “Active”, the inhibition at 10 µg/mL (Leishmania donovani [8]) was 99.8% and the CC50 at 72 h [18] was 5.81 µg/mL (≈ 9.82 µM). For the same compound, the inhibition at 2 µg/mL (Leishmania donovani [19]) was 80.6%, the Activity [9] was “Not Active” and the inhibition at 6.25 µg/mL (Leishmania donovani [10]) was 86.4%. For the same compound, the IC50 (Leishmania donovani [21]) was 24 µg/mL (≈ 40.6 µM), the inhibition at 1 µg/mL (Leishmania donovani [22]) was 3% and the inhibition at 5 µg/mL (Leishmania donovani [23]) was 78.3%.
